Data: patent publication US10221426B2, “Constitutively active PYR/PYL receptor proteins for improving plant stress tolerance” (The Regents of the University of California, priority 2009, dated 2019)

System: PYR/PYL receptors PYR1, PYL2, PYL3, and/or PYL4
Test: Yeast two hybrid agonist screens (conventional and halo assays; compound library and plant extracts)
Assay type: cell-based, Arabidopsis
Description: We next investigated whether other compounds besides ABA and pyrabactin could act as agonists of PYR/PYL proteins. Yeast two hybrid strains expressing ABA-receptors and type 2 C protein phosphatases in the appropriate vectors can be used to monitor activation of ABA receptors. These yeast strains therefore create a facile screening system for the identification of cell permeant compounds that act as ABA agonists, i.e. compounds that promote binding of PYR/PYL family members to their protein phosphatase targets. […]
To conduct these agonist assays, screening compounds are added to microtiter wells and appropriate yeast growth media are added. The wells are then seeded with PYR/PYL-PP2C strains and agonist activity is monitored after growth of the strains on the chemical-containing medium. […]
Using a combination of the conventional and halo assays as described above, 65,000 screening compounds were tested for activation of PYR1, PYL2, PYL3 or PYL4 expressing yeast two hybrid strains. Hit compounds that activated any of the yeast strains were retested on all 4 yeast strains and activity assessed qualitatively using X-gal staining assays. […]

copaenoic acid
activation of PYR/PYL yeast two hybrid strains: naturally occurring ABA agonist
